Reference: patent US20020026053A1, “Novel 3-(substituted) -2- indolinones compounds and use thereof as inhibitors of protein kinase activity” (priority 1997, published 2002)

These compounds were tested against T1, Met receptor (EGFR/Met chimeric cells, EMR) (Homo sapiens, UniProt P08581) (assay: Met Autophosphorylation Assay).
T1 construct: expressed in transfected cells; the other entry of the earlier key: EGFR (P00533, Epidermal growth factor receptor)
Type: biochemical
Protocol: Met Autophosphorylation Assay
This assay determines Met tyrosine kinase activity by analyzing Met protein tyrosine kinase levels on the Met receptor.
a. HNTG (5× stock solution): Dissolve 23.83 g HEPES and 43.83 g NaCl in about 350 ml dH2O. Adjust pH to 7.2 with HCl or NaOH, add 500 ml glycerol and 10 ml Triton X-100, mix, add dH2O to 1 L total volume. To make 1 L of 1× working solution add 200 ml 5× stock solution to 800 ml dH2O, check and adjust pH as necessary, store at 4° C.
b. PBS (Dulbecco's Phosphate-Buffered Saline), Gibco Cat. # 450-1300EB (1× solution).
c. Blocking Buffer: in 500 ml dH2O place 100 g BSA, 12.1 g Tris-pH7.5, 58.44 g NaCl and 10 ml Tween-20, dilute to 1 L total volume.
d. Kinase Buffer: To 500 ml dH2O add 12.1 g TRIS (pH 7.2), 58.4 g NaCl, 40.7 g MgCl2 and 1.9 g EGTA; bring to 1 L total volume with dH2O.
e. PMSF (Phenylmethylsulfonyl fluoride), Sigma Cat. # P-7626, to 435.5 mg, add 100% ethanol to 25 ml total volume, vortex.
f. ATP (Bacterial Source), Sigma Cat. # A-7699, store powder at −20° C.; to make up solution for use, dissolve 3.31 mg in 1 ml dH2O.
g. RC-20H HRPO Conjugated Anti-Phosphotyrosine, Transduction Laboratories Cat. # E120H.
h. Pierce 1-Step Turbo™ B-ELISA (3,3′,5,5′-tetramethylbenzidine, Pierce Cat. # 34022.
i. H2SO4, add 1 ml conc.(18 N) to 35 ml dH2O.
j. TRIS HCL, Fischer Cat. # BP152-5; to 121.14 g of material, add 600 ml MilliQ H2O, adjust pH to 7.5 (or 7.2) with HCl, bring volume to 1 L with MilliQ H2O.
k. NaCl, Fischer Cat. # S271-10, make up 5M solution.
m. Na3VO4, Fischer Cat. # S454-50, to 1.8 g material add 80 ml MilliQ H2O, adjust pH to 10.0 with HCl or NaOH, boil in microwave, cool, check pH, repeat procedure until pH stable at 10.0, add MilliQ H2O to 100 ml total volume, make 1 ml aliquots and store at −80° C.
n. MgCl2, Fischer Cat. # M33-500, make up 1M solution.
o. HEPES, Fischer Cat. # BP310-500, to 200 ml MilliQ H2O, add 59.6 g material, adjust pH to 7.5, bring volume to 250 ml total, sterile filter.
p. Albumin, Bovine (BSA), Sigma Cat. # A-4503, to 30 grams material add sterile distilled water to make total volume of 300 ml, store at 4° C.
q. TBST Buffer: to approx. 900 ml dH2O in a 1 L graduated cylinder add 6.057 g TRIS and 8.766 g NaCl, when dissolved, adjust pH to 7.2 with HCl, add 1.0 ml Triton X-100 and bring to 1 L total volume with dH2O.
r. Goat Affinity purified antibody Rabbit IgG (whole molecule), Cappel Cat. # 55641.
s. Anti h-Met (C-28) rabbit polyclonal IgG antibody, Santa Cruz Chemical Cat. # SC-161.
t. Transiently Transfected EGFR/Met chimeric cells (EMR) (Komada, et al., Oncogene, 8:2381-2390 (1993).
u. Sodium Carbonate Buffer, ([…], Fischer Cat. # S495) to 10.6 g material add 800 ml MilliQ H2O, when dissolved adjust pH to 9.6 with NaOH, bring up to 1 L total volume with MilliQ H2O, filter, store at 4° C.
All of the following steps are conducted at room temperature unless it is specifically indicated otherwise. All ELISA plate washing is by rinsing 4× with TBST.
This procedure can be performed the night before or immediately prior to the start of receptor capture.
1. Quick thaw lysates in a 37° C. waterbath with a swirling motion until the last crystals disappear.
2. Lyse cell pellet with 1× HNTG containing 1 mM PMSF. Use 3 ml of HNTG per 15 cm dish of cells. Add ½ the calculated HNTG volume, vortex the tube for 1 min., add the remaining amount of HNTG, vortex for another min.
3. Balance tubes, centrifuge at 10,000× g for 10 min at 4° C.
4. Pool supernatants, remove an aliquot for protein determination.
5. Quick freeze pooled sample in dry ice/ethanol bath. This step is performed regardless of whether lysate will be stored overnight or used immediately following protein determination.
6. Perform protein determination using standard bicinchoninic acid (BCA) method (BCA Assay Reagent Kit from Pierce Chemical Cat. # 23225).
1. Coat Corning 96 well ELISA plates with 5 μg per well Goat anti-Rabbit antibody in Carbonate Buffer for a total well volume of 50 μl. Store overnight at 4° C. […]

T1 sequence (P08581 with tags, fused parts or gaps): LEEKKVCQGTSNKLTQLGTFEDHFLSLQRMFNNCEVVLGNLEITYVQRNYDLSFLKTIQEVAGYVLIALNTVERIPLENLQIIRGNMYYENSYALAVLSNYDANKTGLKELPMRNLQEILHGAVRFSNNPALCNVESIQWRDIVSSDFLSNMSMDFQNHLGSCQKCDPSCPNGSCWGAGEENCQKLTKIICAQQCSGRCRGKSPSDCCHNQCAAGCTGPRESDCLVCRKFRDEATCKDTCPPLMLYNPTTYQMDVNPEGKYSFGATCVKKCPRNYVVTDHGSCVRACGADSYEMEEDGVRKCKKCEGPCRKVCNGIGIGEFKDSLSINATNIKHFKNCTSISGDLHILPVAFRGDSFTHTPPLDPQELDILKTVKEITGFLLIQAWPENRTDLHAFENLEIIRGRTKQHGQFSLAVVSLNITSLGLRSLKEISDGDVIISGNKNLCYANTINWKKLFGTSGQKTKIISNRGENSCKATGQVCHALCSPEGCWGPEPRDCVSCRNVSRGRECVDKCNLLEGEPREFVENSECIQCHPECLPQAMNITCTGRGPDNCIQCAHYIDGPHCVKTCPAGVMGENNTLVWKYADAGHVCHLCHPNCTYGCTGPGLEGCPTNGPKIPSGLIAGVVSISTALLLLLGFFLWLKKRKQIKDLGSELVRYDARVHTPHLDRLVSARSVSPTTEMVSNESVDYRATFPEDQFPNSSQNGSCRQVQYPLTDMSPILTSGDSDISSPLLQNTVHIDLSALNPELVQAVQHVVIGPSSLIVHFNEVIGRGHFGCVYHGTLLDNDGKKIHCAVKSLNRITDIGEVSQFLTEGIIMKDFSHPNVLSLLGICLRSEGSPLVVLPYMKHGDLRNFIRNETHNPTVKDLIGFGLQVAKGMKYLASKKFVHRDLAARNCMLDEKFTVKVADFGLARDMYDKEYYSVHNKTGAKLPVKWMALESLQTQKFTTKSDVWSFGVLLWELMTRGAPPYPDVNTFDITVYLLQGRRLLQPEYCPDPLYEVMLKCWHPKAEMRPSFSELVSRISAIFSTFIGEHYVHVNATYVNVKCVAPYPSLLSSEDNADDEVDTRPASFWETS

| Compound | Met Kinase % Inhibition (P.130) [%] |
| --- | --- |
| CCOC(=O)c1c(C)[nH]c(C=C2C(=O)Nc3c(Br)cc(Br)c(C)c32)c1C [10718/H02] | 31.5 |
| COc1cc(Br)c(O)c(C=C2C(=O)Nc3c(Br)cc(Br)c(C)c32)c1 [10718/H03] | 90.8 |
| Cc1c(Br)cc(Br)c2c1C(=Cc1ccc3ccccc3c1O)C(=O)N2 [10718/H04] | 84.3 |
| CCOC(=O)CCc1c(C(=O)OCC)[nH]c(C=C2C(=O)Nc3c(Br)cc(Br)c(C)c32)c1CC(=O)OCC [10718/H05] | 13.5 |
| CCOC(=O)c1cc(C=C2C(=O)Nc3c(Br)cc(Br)c(C)c32)oc1C [10718/H06] | 32.2 |
| COC(=O)c1[nH]c(C)c(C=C2C(=O)Nc3c(Br)cc(Br)c(C)c32)c1C(=O)OC [10718/H07] | 52.7 |
| Cc1c(Br)cc(Br)c2c1C(=Cc1ccc(Cl)c([N+](=O)[O-])c1)C(=O)N2 [10718/H08] | 14.4 |
| CCOc1cccc(C=C2C(=O)Nc3c(Br)cc(Br)cc32)c1O [10734/A02] | 51.1 |
| O=C1Nc2c(Br)cc(Br)cc2C1=Cc1cc(Cl)cc(Cl)c1O [10734/A03] | 87.8 |
| O=C1Nc2c(Br)cc(Br)cc2C1=Cc1cc(Cl)ccc1O [10734/A04] | 68.0 |
| CCN(CC)c1ccc(C=C2C(=O)Nc3c(Br)cc(Br)cc32)c(O)c1 [10734/A05] | 69.9 |
| O=C1Nc2c(Br)cc(Br)cc2C1=Cc1ccc([N+](=O)[O-])cc1 [10734/A06] | 46.9 |
| O=C1Nc2c(Br)cc(Br)cc2C1=Cc1cc(Br)cc(Br)c1O [10734/A07] | 89.3 |
| O=C1Nc2c(Br)cc(Br)cc2C1=Cc1cccc(F)c1O [10734/A08] | 71.5 |
| O=C1Nc2c(Br)cc(Br)cc2C1=Cc1ccc(O)c(Br)c1 [10734/A09] | 88.4 |
| CC(C)(C)c1ccc(C=C2C(=O)Nc3c(Br)cc(Br)cc32)cc1 [10734/A10] | 55.4 |
| O=C1Nc2c(Br)cc(Br)cc2C1=Cc1ccc(Br)s1 [10734/A11] | 51.9 |
| CCOc1cccc(C=C2C(=O)Nc3ccc(I)cc32)c1O [10734/B02] | 61.9 |
| O=C1Nc2ccc(I)cc2C1=Cc1cc(Cl)cc(Cl)c1O [10734/B03] | 90.1 |
| O=C1Nc2ccc(I)cc2C1=Cc1cc(Cl)ccc1O [10734/B04] | 88.4 |
| CCN(CC)c1ccc(C=C2C(=O)Nc3ccc(I)cc32)c(O)c1 [10734/B05] | 67.8 |
| O=C1Nc2ccc(I)cc2C1=Cc1ccc([N+](=O)[O-])cc1 [10734/B06] | 91.2 |
| O=C1Nc2ccc(I)cc2C1=Cc1cc(Br)cc(Br)c1O [10734/B07] | 93.2 |
| O=C1Nc2ccc(I)cc2C1=Cc1cccc(F)c1O [10734/B08] | 56.1 |
| O=C1Nc2ccc(I)cc2C1=Cc1ccc(O)c(Br)c1 [10734/B09] | 94.3 |
| CC(C)(C)c1ccc(C=C2C(=O)Nc3ccc(I)cc32)cc1 [10734/B10] | 82.6 |
| O=C1Nc2ccc(I)cc2C1=Cc1ccc(Br)s1 [10734/B11] | 83.6 |

| Compound | Met Kinase % Inhibition (P.130) [%] |
| --- | --- |
| CCOc1cccc(C=C2C(=O)Nc3ccc(Br)c(C)c32)c1O [10734/C02] | 78.6 |
| Cc1c(Br)ccc2c1C(=Cc1cc(Cl)cc(Cl)c1O)C(=O)N2 [10734/C03] | 88.2 |
| Cc1c(Br)ccc2c1C(=Cc1cc(Cl)ccc1O)C(=O)N2 [10734/C04] | 90.7 |
| CCN(CC)c1ccc(C=C2C(=O)Nc3ccc(Br)c(C)c32)c(O)c1 [10734/C05] | 52.7 |
| Cc1c(Br)ccc2c1C(=Cc1ccc([N+](=O)[O-])cc1)C(=O)N2 [10734/C06] | 48.3 |
| Cc1c(Br)ccc2c1C(=Cc1cc(Br)cc(Br)c1O)C(=O)N2 [10734/C07] | 96.8 |
| Cc1c(Br)ccc2c1C(=Cc1cccc(F)c1O)C(=O)N2 [10734/C08] | 93.2 |
| Cc1c(Br)ccc2c1C(=Cc1ccc(O)c(Br)c1)C(=O)N2 [10734/C09] | 88.6 |
| Cc1c(Br)ccc2c1C(=Cc1ccc(C(C)(C)C)cc1)C(=O)N2 [10734/C10] | 11.6 |
| Cc1c(Br)ccc2c1C(=Cc1ccc(Br)s1)C(=O)N2 [10734/C11] | 23.9 |
| CCOc1cccc(C=C2C(=O)Nc3ccc(S(=O)(=O)NC)cc32)c1O [10734/D02] | 46.0 |
| CNS(=O)(=O)c1ccc2c(c1)C(=Cc1cc(Cl)cc(Cl)c1O)C(=O)N2 [10734/D03] | 78.6 |
| CNS(=O)(=O)c1ccc2c(c1)C(=Cc1cc(Cl)ccc1O)C(=O)N2 [10734/D04] | 46.9 |
| CCN(CC)c1ccc(C=C2C(=O)Nc3ccc(S(=O)(=O)NC)cc32)c(O)c1 [10734/D05] | 55.0 |
| CNS(=O)(=O)c1ccc2c(c1)C(=Cc1ccc([N+](=O)[O-])cc1)C(=O)N2 [10734/D06] | 30.6 |
| CNS(=O)(=O)c1ccc2c(c1)C(=Cc1cc(Br)cc(Br)c1O)C(=O)N2 [10734/D07] | 92.0 |
| CNS(=O)(=O)c1ccc2c(c1)C(=Cc1cccc(F)c1O)C(=O)N2 [10734/D08] | 49.8 |
| CNS(=O)(=O)c1ccc2c(c1)C(=Cc1ccc(O)c(Br)c1)C(=O)N2 [10734/D09] | 88.0 |
| CNS(=O)(=O)c1ccc2c(c1)C(=Cc1ccc(C(C)(C)C)cc1)C(=O)N2 [10734/D10] | 20.6 |
| CNS(=O)(=O)c1ccc2c(c1)C(=Cc1ccc(Br)s1)C(=O)N2 [10734/D11] | 33.9 |
| CCOc1cccc(C=C2C(=O)Nc3ccc(S(=O)(=O)Nc4ccc(C(F)(F)F)cc4)cc32)c1O [10734/E02] | 66.9 |
| O=C1Nc2ccc(S(=O)(=O)Nc3ccc(C(F)(F)F)cc3)cc2C1=Cc1cc(Cl)cc(Cl)c1O [10734/E03] | 99.3 |
| O=C1Nc2ccc(S(=O)(=O)Nc3ccc(C(F)(F)F)cc3)cc2C1=Cc1cc(Cl)ccc1O [10734/E04] | 88.9 |
| CCN(CC)c1ccc(C=C2C(=O)Nc3ccc(S(=O)(=O)Nc4ccc(C(F)(F)F)cc4)cc32)c(O)c1 [10734/E05] | 63.6 |
| O=C1Nc2ccc(S(=O)(=O)Nc3ccc(C(F)(F)F)cc3)cc2C1=Cc1ccc([N+](=O)[O-])cc1 [10734/E06] | 50.6 |
| O=C1Nc2ccc(S(=O)(=O)Nc3ccc(C(F)(F)F)cc3)cc2C1=Cc1cc(Br)cc(Br)c1O [10734/E07] | 100.8 |
